# Laboratory results published in EP2818471A1, “Nitrogen bicyclic compounds as inhibitors for Scyl1 and Grk5” (Max-Planck-Gesellschaft zur Förderung der Wissenschaften …, priority 2013, dated 2014).
# Test system: beta-TC6 cells
# Assay: Insulin HTRF assay, relative activity Ar normalized to sunitinib
# Assay type: cell-based
# Conditions: Mus musculus, normalized to positive control sunitinib (5 µM = 100%), Table 10
# In short: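 beta-TC6 cells (15k/well) were seeded for 24 or 48 h, washed and exposed to test compound or sunitinib (5 µM f.c.) in induction buffer with 0.5% DMSO for 2, 3 or 4 h at 37°C. Secreted insulin in the supernatant was measured by two-antibody HTRF after 120 min at RT. Ar = (V − 0% control)/(100% control − 0% control) × 100.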
smiles,measurement,value
"COc1cccc(-c2cn3c(-c4cccc(O)c4)cnc3cn2)c1F [compound 372, 3-[6-(2-fluoro-3-methoxy-phenyl)imidazo[1,2-a]pyrazin-3-yl]phenol]",Emax,20 to 50%
"COc1cc(-c2ccc3ncc(-c4ccc(F)c(Cl)c4)n3n2)cc(OC)c1OC [compound 114, 3-(3-chloro-4-fluoro-phenyl)-6-(3,4,5-trimethoxyphenyl)imidazo[1,2-b]pyridazine]",Emax,10 to 20%
"CC(=O)Nc1ccc(-c2ccc3nnc(-c4cccc(Cl)c4)n3c2)cc1 [compound 202, N-[4-[3-(3-chlorophenyl)-[1,2,4]triazolo[4,3-a]pyridin-6-yl]phenyl]acetamide]",Emax,20 to 50%
"COc1cc(-c2cnc3cnc(-c4ccc(NCCN5CCOCC5)nc4)cn23)ccc1O [compound 392, 2-methoxy-4-[6-[6-(2-morpholinoethylamino)-3-pyridyl]imidazo[1,2-a]pyrazin-3-yl]phenol]",Emax,20 to 50%
"O=S1(=O)CCN(CC#Cc2ccc3nnc(-c4cscn4)n3c2)CC1 [compound 232, 4-[3-(3-thiazol-4-yl-[1,2,4]triazolo[4,3-a]pyridin-6-yl)prop-2-ynyl]-1,4-thiazinane 1,1-dioxide]",Emax,10 to 20%
"CN(C)c1cccc(-c2cnc3cnc(-c4ccncc4)cn23)c1 [compound 342, N,N-dimethyl-3-[6-(4-pyridyl)imidazo[1,2-a]pyrazin-3-yl]aniline]",Emax,20 to 50%
"Cn1ccc2cc(-c3cn4c(-c5ccc6ncccc6c5)cnc4cn3)ccc21 [compound 443, 6-[6-(1-methylindol-5-yl)imidazo[1,2-a]pyrazin-3-yl]quinoline]",Emax,≥ 100%
"Cc1cc(-c2cn3c(-c4ccncc4)cnc3cn2)cc(C)c1O [compound 312, 2,6-dimethyl-4-[3-(4-pyridyl)imidazo[1,2-a]pyrazin-6-yl]phenol]",Emax,20 to 50%
"COc1ccc(-c2cnc3ccc(NCCCO)nn23)c(OC)c1 [compound 42, 3-[[3-(2,4-dimethoxyphenyl)imidazo[1,2-b]pyridazin-6-yl]amino]propan-1-ol]",Emax,10 to 20%
"COc1cccc(CC(=O)Nc2cnc3cnc(-c4cccs4)cn23)c1 [compound 260, 2-(3-methoxyphenyl)-N-[6-(2-thienyl)imidazo[1,2-a]pyrazin-3-yl]acetamide]",Emax,20 to 50%
"N#Cc1cccc(-c2cnc3cccnn23)c1 [compound 82, 3-imidazo[1,2-b]pyridazin-3-ylbenzonitrile]",Emax,20 to 50%
"Clc1ccccc1-c1ccc2nnc(-c3cscn3)n2c1 [compound 233, 4-[6-(2-chlorophenyl)-[1,2,4]triazolo[4,3-a]pyridin-3-yl]thiazole]",Emax,50 to 100%
"COc1cc(-c2cnc3ccc(-c4cccc(OC(F)(F)F)c4)nn23)ccc1O [compound 138, 2-methoxy-4-[6-[3-(trifluoromethoxy)phenyl]imidazo[1,2-b]pyridazin-3-yl]phenol]",Emax,10 to 20%
"CN(C)c1cccc(-c2cnc3cnc(-c4ccc(CO)cc4)cn23)c1 [compound 344, [4-[3-[3-(dimethylamino)phenyl]imidazo[1,2-a]pyrazin-6-yl]phenyl]methanol]",Emax,20 to 50%
"Nc1ccc(-c2cn3c(-c4ccc5c(c4)OCO5)cnc3cn2)cn1 [compound 309, 5-[3-(1,3-benzodioxol-5-yl)imidazo[1,2-a]pyrazin-6-yl]pyridin-2-amine]",Emax,10 to 20%
"c1csc(-c2ccc3nnc(-c4ccoc4)n3c2)c1 [compound 221, 3-(3-furyl)-6-(2-thienyl)-[1,2,4]triazolo[4,3-a]pyridine]",Emax,50 to 100%
"CN(C)c1cccc(-c2ccc3ncc(-c4cccs4)n3n2)c1 [compound 155, N,N-dimethyl-3-[3-(2-thienyl)imidazo[1,2-b]pyridazin-6-yl]aniline]",Emax,20 to 50%
"OC1CCC(Nc2ccc3ncc(Br)n3n2)CC1 (stereo not shown) [compound 32, 4-[(3-bromoimidazo[1,2-b]pyridazin-6-yl)amino]cyclohexanol]",Emax,10 to 20%
"CNC(=O)c1ccc(-c2ccc3nnc(-c4ccc(OCCCN(C)C)cc4)n3c2)cc1 [compound 240, 4-[3-[4-[3-(dimethylamino)propoxy]phenyl]-[1,2,4]triazolo[4,3-a]pyridin-6-yl]-N-methyl-benzamide]",Emax,20 to 50%
"CN1CCN(c2ccc(-c3cnc4cccnn34)cn2)CC1 [compound 69, 3-[6-(4-methylpiperazin-1-yl)-3-pyridyl]imidazo[1,2-b]pyridazine]",Emax,10 to 20%
"Cc1ccccc1-c1cn2c(-c3ccc4c(c3)OCO4)cnc2cn1 [compound 305, 3-(1,3-benzodioxol-5-yl)-6-(o-tolyl)imidazo[1,2-a]pyrazine]",Emax,20 to 50%
"Cc1ccccc1-c1cn2c(-c3ccc(CCC(=O)O)cc3)cnc2cn1 [compound 330, 3-[4-[6-(o-tolyl)imidazo[1,2-a]pyrazin-3-yl]phenyl]propanoic acid]",Emax,20 to 50%
"Brc1cnc2ccc(NCCCN3CCOCC3)nn12 [compound 44, 3-bromo-N-(3-morpholinopropyl)imidazo[1,2-b]pyridazin-6-amine]",Emax,10 to 20%
"Fc1cccc(-c2cn3c(-c4ccccc4)cnc3cn2)c1 [compound 297, 6-(3-fluorophenyl)-3-phenyl-imidazo[1,2-a]pyrazine]",Emax,20 to 50%
"Clc1cccc(-c2nnc3ccc(-c4ccncc4)cn23)c1 [compound 199, 3-(3-chlorophenyl)-6-(4-pyridyl)-[1,2,4]triazolo[4,3-a]pyridine]",Emax,50 to 100%
"O=C(O)CCc1ccc(-c2cnc3cnc(-c4ccccc4CO)cn23)cc1 [compound 333, 3-[4-[6-[2-(hydroxymethyl)phenyl]imidazo[1,2-a]pyrazin-3-yl]phenyl]propanoic acid]",Emax,20 to 50%
"CN(C)c1ccc(-c2cnc3cnc(-c4cccc(C(=O)NCCO)c4)cn23)cc1 [compound 286, 3-[3-(4-dimethylaminophenyl)imidazo[1,2-a]pyrazin-6-yl]-N-(2-hydroxyethyl)benzamide]",Emax,20 to 50%
"COc1ccccc1-c1ccc2ncc(-c3cccc(OC(F)(F)F)c3)n2n1 [compound 115, 6-(2-methoxyphenyl)-3-[3-(trifluoromethoxy)phenyl]imidazo[1,2-b]pyridazine]",Emax,10 to 20%
"COc1cc(-c2nnc3ccc(-c4ccc(N5CCN(C)CC5)cc4)cn23)ccc1O [compound 215, 2-methoxy-4-[6-[4-(4-methylpiperazin-1-yl)phenyl]-[1,2,4]triazolo[4,3-a]pyridin-3-yl]phenol]",Emax,20 to 50%
"CN(C)c1ccc(-c2cnc3cnc(-c4ccc(CO)cc4)cn23)cc1 [compound 287, [4-[3-(4-dimethylaminophenyl)imidazo[1,2-a]pyrazin-6-yl]phenyl]methanol]",Emax,50 to 100%
"COc1ccc(-c2ccc3nnc(-c4ccccc4)n3c2)c(C)c1 [compound 166, 6-(4-methoxy-2-methyl-phenyl)-3-phenyl-[1,2,4]triazolo[4,3-a]pyridine]",Emax,≥ 100%
"FC(F)(F)c1cccc(-c2cnc3ccc(C4CC4)nn23)c1 [compound 136, 6-cyclopropyl-3-[3-(trifluoromethyl)phenyl]imidazo[1,2-b]pyridazine]",Emax,10 to 20%
"C(=C\c1cn2c(-c3cccs3)cnc2cn1)/c1ccccc1 [compound 419, 6-[(E)-styryl]-3-(2-thienyl)imidazo[1,2-a]pyrazine]",Emax,20 to 50%
"Nc1cccc(-c2cnc3ccc(NC4CCOCC4)nn23)c1 [compound 33, 3-(3-aminophenyl)-N-tetrahydropyran-4-yl-imidazo[1,2-b]pyridazin-6-amine]",Emax,20 to 50%
"O=C(NCCO)c1cccc(-c2cn3c(-c4cccc(OC(F)(F)F)c4)cnc3cn2)c1 [compound 353, N-(2-hydroxyethyl)-3-[3-[3-(trifluoromethoxy)phenyl]imidazo[1,2-a]pyrazin-6-yl]benzamide]",Emax,20 to 50%
"c1cnn2c(-c3ccc4c(c3)CCO4)cnc2c1 [compound 80, 3-(2,3-dihydrobenzofuran-5-yl)imidazo[1,2-b]pyridazine]",Emax,10 to 20%
"COc1cc(-c2cnc3cnc(-c4ccc5c(c4)OCO5)cn23)ccc1O [compound 394, 4-[6-(1,3-benzodioxol-5-yl)imidazo[1,2-a]pyrazin-3-yl]-2-methoxy-phenol]",Emax,20 to 50%
"CC(=O)Nc1ccc(-c2cnc3ccc(-c4ccc(N5CCOCC5)cc4)nn23)cc1 [compound 147, N-[4-[6-(4-morpholinophenyl)imidazo[1,2-b]pyridazin-3-yl]phenyl]acetamide]",Emax,≥ 100%
"COc1cc(-c2cnc3cnc(-c4cnn(C)c4)cn23)ccc1O [compound 397, 2-methoxy-4-[6-(1-methylpyrazol-4-yl)imidazo[1,2-a]pyrazin-3-yl]phenol]",Emax,50 to 100%
"COc1ccc(-c2cnc3ccc(NCc4ccccn4)nn23)cc1OC [compound 47, 3-(3,4-dimethoxyphenyl)-N-(2-pyridylmethyl)imidazo[1,2-b]pyridazin-6-amine]",Emax,20 to 50%
"COc1cccc(CC(=O)Nc2cnc3cnc(-c4ccc5[nH]ccc5c4)cn23)c1 [compound 254, N-[6-(1H-indol-5-yl)imidazo[1,2-a]pyrazin-3-yl]-2-(3-methoxyphenyl)acetamide]",Emax,10 to 20%
"Cc1cccc(-c2cnc3cccnn23)c1 [compound 84, 3-(m-tolyl)imidazo[1,2-b]pyridazine]",Emax,10 to 20%
"CS(=O)(=O)Nc1cccc(-c2ccc3nnc(-c4ccccc4)n3c2)c1 [compound 169, N-[3-(3-phenyl-[1,2,4]triazolo[4,3-a]pyridin-6-yl)phenyl]methanesulfonamide]",Emax,50 to 100%
"CCOc1cccc(-c2cnc3cccnn23)c1 [compound 76, 3-(3-ethoxyphenyl)imidazo[1,2-b]pyridazine]",Emax,10 to 20%
"CSc1ccc(-c2cnc3cccnn23)cc1 [compound 72, 3-(4-methylsulfanylphenyl)imidazo[1,2-b]pyridazine]",Emax,10 to 20%
"Cn1cncc1C#Cc1ccc2nnc(-c3ccc4c(c3)OCO4)n2c1 [compound 172, 3-(1,3-benzodioxol-5-yl)-6-[2-(3-methylimidazol-4-yl)ethynyl]-[1,2,4]triazolo[4,3-a]pyridine]",Emax,20 to 50%
